For 49 compounds, viability results are on record in paper PMC11995724, “Antibiotic target discovery by integrated phenotypic and activity-based profiling of electrophilic fragments” (Cell chemical biology, 2025).

The nature of this series: in vitro. Conditions: human, hek293t cells.
With `C=CC(=O)N1CCc2c(ncn2-c2ccccc2)C1` [3-N09, 1-{1-phenyl-1H,4H,5H,6H,7H-imidazo[4,5-c]pyridin-5-yl}prop-2-en-1-one], the viability at 48 h, 25 µM is 70.1%.

Turning to `C=CC(=O)N1CCC(C(=O)NCc2ccc(S(N)(=O)=O)cc2)CC1` [3-N10, 1-(prop-2-enoyl)-N-[(4-sulfamoylphenyl)methyl]piperidine-4-carboxamide], the viability at 48 h, 25 µM was 85.1%.

In the case of `C=CC(=O)NC1CCn2cccc2C1` (stereo not shown) [3-N11, N-(5,6,7,8-tetrahydroindolizin-7-yl)prop-2-enamide], the viability at 48 h, 25 µM was 71.4%.

For the compound `C=CC(=O)N1CCC(C(=O)NCc2cccc(Cl)c2F)CC1` [3-N12, N-[(3-chloro-2-fluorophenyl)methyl]-1-(prop-2-enoyl)piperidine-4-carboxamide], the viability at 48 h, 25 µM was 87.6%.

As for `C=CC(=O)NC(C)c1nnc(-c2ccccc2F)s1` (stereo not shown) [3-N13, N-{1-[5-(2-fluorophenyl)-1,3,4-thiadiazol-2-yl]ethyl}prop-2-enamide], the viability at 48 h, 25 µM turned out to be 76%.

With `C=CC(=O)NC(c1ccc(F)cc1)c1ccccn1` (stereo not shown) [3-N14, N-[(4-fluorophenyl)(pyridin-2-yl)methyl]prop-2-enamide], the viability at 48 h, 25 µM was found to be 97%.

Consider `C=CC(=O)NCc1cc(Cl)cc(S(C)(=O)=O)c1` [3-N15, N-[(3-chloro-5-methanesulfonylphenyl)methyl]prop-2-enamide], for which the viability at 48 h, 25 µM turned out to be 76.8%.

Take `C=CC(=O)N[C@H](C)c1ccccc1OC(C)C` [3-N16, N-[(1R)-1-[2-(propan-2-yloxy)phenyl]ethyl]prop-2-enamide]: the viability at 48 h, 25 µM amounted to 82.5%.

Consider `C=CC(=O)NCC1CS(=O)(=O)c2ccccc2O1` (stereo not shown) [3-N17, N-[(4,4-dioxo-2,3-dihydro-1,4lambda6-benzoxathiin-2-yl)methyl]prop-2-enamide], for which the viability at 48 h, 25 µM worked out at 79.4%.

For the compound `C=CC(=O)N1Cc2c(C(=O)O)cnn2CC1C` (stereo not shown) [3-N18, 6-methyl-5-(prop-2-enoyl)-4H,5H,6H,7H-pyrazolo[1,5-a]pyrazine-3-carboxylic acid], the viability at 48 h, 25 µM amounted to 87%.

Take `C=CC(=O)NCCc1nc(C)no1` [3-N19, N-[2-(3-methyl-1,2,4-oxadiazol-5-yl)ethyl]prop-2-enamide]: the viability at 48 h, 25 µM was determined as 74.2%.

On to `C=CC(=O)NCc1nc2cc(F)ccc2o1` [3-N20, N-[(5-fluoro-1,3-benzoxazol-2-yl)methyl]prop-2-enamide], for which the viability at 48 h, 25 µM is 84.7%.

`C=CC(=O)NCc1cn(C2CCCC2)nc1C` [3-N21, N-[(1-cyclopentyl-3-methyl-1H-pyrazol-4-yl)methyl]prop-2-enamide]: the viability at 48 h, 25 µM was 55.5%.

Regarding `C=CC(=O)NCc1ccc(C(=O)NC2CC(=O)N(C)C2)cc1` (stereo not shown) [3-N22, N-(1-methyl-5-oxopyrrolidin-3-yl)-4-[(prop-2-enamido)methyl]benzamide], the viability at 48 h, 25 µM amounted to 81.2%.

As to `C=CC(=O)N1CCC(CCO)c2ccccc21` (stereo not shown) [3-O03, 1-[4-(2-hydroxyethyl)-1,2,3,4-tetrahydroquinolin-1-yl]prop-2-en-1-one], the viability at 48 h, 25 µM stood at 58.4%.

Take `C=CC(=O)N1CCC(C(=O)NC[C@H]2C[C@@H](O)C2)(c2ccccc2)CC1` [3-O04, 4-phenyl-1-(prop-2-enoyl)-N-{[(1s,3s)-3-hydroxycyclobutyl]methyl}piperidine-4-carboxamide]: the viability at 48 h, 25 µM came out at 118%.

For `C=CC(=O)NCc1ccc(C(=O)N2CCCC2)cc1` [3-O05, N-{[4-(pyrrolidine-1-carbonyl)phenyl]methyl}prop-2-enamide], the viability at 48 h, 25 µM was determined as 71.6%.

Take `C=CC(=O)Nc1cc(C)c(CC)cc1OC` [3-O06, N-(4-ethyl-2-methoxy-5-methylphenyl)prop-2-enamide]: the viability at 48 h, 25 µM was determined as 82%.

For `C=CC(=O)N1CCC(Cc2nc3ccc(F)cc3o2)CC1` [3-O07, 1-{4-[(6-fluoro-1,3-benzoxazol-2-yl)methyl]piperidin-1-yl}prop-2-en-1-one], the viability at 48 h, 25 µM stood at 47.3%.

As for `C=CC(=O)Nc1ccc(C(=O)N2CCC(S(=O)(=O)NC)C2)cc1` (stereo not shown) [3-O08, N-{4-[3-(methylsulfamoyl)pyrrolidine-1-carbonyl]phenyl}prop-2-enamide], the viability at 48 h, 25 µM turned out to be 95.4%.

Take `C=CC(=O)N1CCCC2(CCCCO2)C1` (stereo not shown) [3-O09, 1-{1-oxa-8-azaspiro[5.5]undecan-8-yl}prop-2-en-1-one]: the viability at 48 h, 25 µM turned out to be 57%.

On to `C=CC(=O)N(C)CC(=O)N1CCN(C(=O)C2CCCCC2)CC1` [3-O10, N-[2-(4-cyclohexanecarbonylpiperazin-1-yl)-2-oxoethyl]-N-methylprop-2-enamide], for which the viability at 48 h, 25 µM turned out to be 93.8%.

As to `C=CC(=O)N1CCOCC1c1noc(C)n1` (stereo not shown) [3-O11, 1-[3-(5-methyl-1,2,4-oxadiazol-3-yl)morpholin-4-yl]prop-2-en-1-one], the viability at 48 h, 25 µM was 51.5%.

`C=CC(=O)N1CCC(C(=O)Nc2nncn2C)(c2ccccc2)CC1` [3-O12, N-(4-methyl-4H-1,2,4-triazol-3-yl)-4-phenyl-1-(prop-2-enoyl)piperidine-4-carboxamide]: the viability at 48 h, 25 µM was 106%.

Turning to `C=CC(=O)NCC1(S(=O)(=O)CC)CC1` [3-O13, N-{[1-(ethanesulfonyl)cyclopropyl]methyl}prop-2-enamide], the viability at 48 h, 25 µM is 48.1%.

With `C=CC(=O)N1CCC(C(=O)NCc2cnn(-c3ccccc3)c2)CC1` [3-O14, N-[(1-phenyl-1H-pyrazol-4-yl)methyl]-1-(prop-2-enoyl)piperidine-4-carboxamide], the viability at 48 h, 25 µM was 91.1%.

As to `C=CC(=O)Nc1ccc2c(c1)S(=O)(=O)CC2` [3-O15, N-(1,1-dioxo-2,3-dihydro-1lambda6-benzothiophen-6-yl)prop-2-enamide], the viability at 48 h, 25 µM was 63.9%.

Turning to `C=CC(=O)N1CCC(Cc2nccs2)C1` (stereo not shown) [3-O16, 1-{3-[(1,3-thiazol-2-yl)methyl]pyrrolidin-1-yl}prop-2-en-1-one], the viability at 48 h, 25 µM was found to be 98.7%.

`C=CC(=O)NCCC(=O)N1CC[S+]([O-])C(C)(C)CC1` (stereo not shown) [3-O17, N-[3-(7,7-dimethyl-1-oxo-1lambda4,4-thiazepan-4-yl)-3-oxopropyl]prop-2-enamide]: the viability at 48 h, 25 µM was 58.5%.

Consider `C=CC(=O)NC1CCCN(C2CCCCC2)C1=O` (stereo not shown) [3-O18, N-(1-cyclohexyl-2-oxopiperidin-3-yl)prop-2-enamide], for which the viability at 48 h, 25 µM was 92.1%.

For `C=CC(=O)N1CCC(C(=O)NCc2ccc(OC)cn2)CC1` [3-O19, N-[(5-methoxypyridin-2-yl)methyl]-1-(prop-2-enoyl)piperidine-4-carboxamide], the viability at 48 h, 25 µM was found to be 59%.

As to `C=CC(=O)N1CCCCC1c1nc2ccccc2o1` (stereo not shown) [3-O20, 1-[2-(1,3-benzoxazol-2-yl)piperidin-1-yl]prop-2-en-1-one], the viability at 48 h, 25 µM stood at 82.3%.

Take `C=CC(=O)Nc1cnn(C2CCCC2)c1` [3-O21, N-(1-cyclopentyl-1H-pyrazol-4-yl)prop-2-enamide]: the viability at 48 h, 25 µM was 70.5%.

As for `C=CC(=O)NCc1cccc(C(C)(F)F)c1` [3-O22, N-{[3-(1,1-difluoroethyl)phenyl]methyl}prop-2-enamide], the viability at 48 h, 25 µM was determined as 136%.

In the case of `C=CC(=O)N1CCC(C(=O)NCc2ncnn2CC)CC1` [3-P03, N-[(1-ethyl-1H-1,2,4-triazol-5-yl)methyl]-1-(prop-2-enoyl)piperidine-4-carboxamide], the viability at 48 h, 25 µM amounted to 71.2%.

For the compound `C=CC(=O)NC1(c2ccccc2)CCOC1` (stereo not shown) [3-P04, N-(3-phenyloxolan-3-yl)prop-2-enamide], the viability at 48 h, 25 µM was found to be 89.3%.

As to `C=CC(=O)NCc1ccc(C(=O)N2CCC(C#N)CC2)cc1` [3-P05, N-{[4-(4-cyanopiperidine-1-carbonyl)phenyl]methyl}prop-2-enamide], the viability at 48 h, 25 µM was 46.3%.

Regarding `C=CC(=O)N(C)CC(=O)Nc1ccc(N2CCC(O)CC2)cc1` [3-P06, N-({[4-(4-hydroxypiperidin-1-yl)phenyl]carbamoyl}methyl)-N-methylprop-2-enamide], the viability at 48 h, 25 µM was determined as 65.6%.

Take `C=CC(=O)NC(c1nnc2n1CCC2)C(C)C` (stereo not shown) [3-P07, N-(2-methyl-1-{5H,6H,7H-pyrrolo[2,1-c][1,2,4]triazol-3-yl}propyl)prop-2-enamide]: the viability at 48 h, 25 µM was 52.1%.

As for `C=CC(=O)NCc1ccc(C(C)(C)C)[nH]c1=O` [3-P08, N-[(6-tert-butyl-2-oxo-1,2-dihydropyridin-3-yl)methyl]prop-2-enamide], the viability at 48 h, 25 µM came to 76.4%.

With `C=CC(=O)N1CCC(Cn2cnnc2)CC1` [3-P09, 1-{4-[(4H-1,2,4-triazol-4-yl)methyl]piperidin-1-yl}prop-2-en-1-one], the viability at 48 h, 25 µM is 43.5%.

Turning to `C=CC(=O)N1CCC(C(=O)NCC(C)c2ncc(C)s2)CC1` (stereo not shown) [3-P10, N-[2-(5-methyl-1,3-thiazol-2-yl)propyl]-1-(prop-2-enoyl)piperidine-4-carboxamide], the viability at 48 h, 25 µM came to 61.4%.

`C=CC(=O)N[C@H]1CCN(S(=O)(=O)c2ccccc2)C1` [3-P11, N-[(3S)-1-(benzenesulfonyl)pyrrolidin-3-yl]prop-2-enamide]: the viability at 48 h, 25 µM stood at 54.4%.

As for `C=CC(=O)N1CCC(C(=O)N[C@H](C)c2ccc3c(c2)CCCC3)CC1` [3-P12, 1-(prop-2-enoyl)-N-[(1R)-1-(5,6,7,8-tetrahydronaphthalen-2-yl)ethyl]piperidine-4-carboxamide], the viability at 48 h, 25 µM came to 58%.

Consider `C=CC(=O)NC1(Cc2ccccc2)CC1` [3-P13, N-(1-benzylcyclopropyl)prop-2-enamide], for which the viability at 48 h, 25 µM worked out at 61.5%.

For the compound `C=CC(=O)N1Cc2cnn(C)c2C1` [3-P14, 1-{1-methyl-1H,4H,5H,6H-pyrrolo[3,4-c]pyrazol-5-yl}prop-2-en-1-one], the viability at 48 h, 25 µM was 87.3%.

Turning to `C=CC(=O)NCc1oc(CC)nc1C` [3-P15, N-[(2-ethyl-4-methyl-1,3-oxazol-5-yl)methyl]prop-2-enamide], the viability at 48 h, 25 µM is 74.7%.

Regarding `C=CC(=O)N(CC)Cc1nc2ccsc2c(=O)[nH]1` [3-P16, N-ethyl-N-({4-oxo-3H,4H-thieno[3,2-d]pyrimidin-2-yl}methyl)prop-2-enamide], the viability at 48 h, 25 µM was 78.2%.

Take `C=CC(=O)NC(C)c1ccc(-n2nc(C)cc2C)c(F)c1` (stereo not shown) [3-P17, N-{1-[4-(3,5-dimethyl-1H-pyrazol-1-yl)-3-fluorophenyl]ethyl}prop-2-enamide]: the viability at 48 h, 25 µM turned out to be 76.1%.

What is called viability is a read-out of living cells in per cent, often relative to untreated cells.
